{"source": "patent US20240327423A1", "about": "“A SERIES OF PYRROLE DERIVATIVES AND THEIR PREPARATION METHOD AND THERAPEUTIC USE” (SHENZHEN SUNGENING BIO-MEDICAL CO., LTD, priority 2020, published 2024)", "key": {"[1]": {"system": "Aspergillus fumigatus ATCCMYA-4690 (AF293)", "assay": "Survival rate experiment II of mouse bloodstream infection model with Aspergillus fumigatus", "assay_type": "in vivo", "conditions": "for day 7 survival rate: 3 mg/kg (bid) orally for 6 days, started 24 hours after infection; for survival time of mouses: oral, bid", "description": "Test Case 6: Survival Rate Experiment II of Mouse Bloodstream Infection Model with Aspergillus fumigatus • Animal for experiment: male CD-1 mouse, 6-8 weeks old, 10 animals per group. • Induction of immunosuppression: the day of infection is defined as day 0, and mouses are injected intraperitoneally with corresponding doses of cyclophosphamide on day −4 (150 mg/kg), day −1 (100 mg/kg), and day 2 (100 mg/kg), respectively. • Microbial pathogen: Aspergillus fumigatus ATCCMYA-4690 (AF293). • Collection conditions of inoculum: culture on SDA culture plates, incubate at 25° C. for at least 7 days, collect with PBS+0.1% Tween 20, and count microscopically; • Inoculation level, route and volume: 3.90E+05 CFU/mouse, tail vein injection, injection volume of 100 μL/mouse; • Treatment: Treatment is started 24 hours after infection, and test compounds are dissolved in PEG400 (0.3 mg/mL), […] The administrated mouses are observed for 8 hours."}, "[2]": {"assay": "Liver microsomal stability test, human", "assay_type": "in vitro ADME", "conditions": "Human liver microsomes; for CLint scaled / half-life: 0.5 mg/mL protein, 37° C., NADPH"}, "[3]": {"conditions": "immunosuppressed male CD-1 mouse"}}}
{"smiles": "Cc1cc(-c2ccccc2)c(C(=O)C(=O)Nc2ccc(N3CCN(c4ncc(F)cn4)CC3)cc2)n1C", "note": "[Example F901318, reference compound]", "values": [{"measurement": "day 7 survival rate", "setting": "[1]; [3]", "result": 0, "unit": "%"}, {"measurement": "survival time of mouses", "setting": "[1]; [3]", "result": "prolong the survival time"}, {"measurement": "CLint scaled", "setting": "[2]", "result": 37.8, "unit": "mL/min/kg"}, {"measurement": "half-life", "setting": "[2]", "result": 33, "unit": "min"}, {"measurement": "Remaining, (T = 60 min)", "setting": "[2]", "result": 27.7, "unit": "%"}]}
{"smiles": "Cc1cc(-c2ccccc2)c(C(=O)C(=O)Nc2cc(F)c3c(c2)OC[C@H]2CN(c4ncc(F)cn4)CCN32)n1C", "note": "[Example 5]", "values": [{"measurement": "CLint scaled", "setting": "[2]", "result": 48.8, "unit": "mL/min/kg"}, {"measurement": "half-life", "setting": "[2]", "result": 25.6, "unit": "min"}, {"measurement": "Remaining, (T = 60 min)", "setting": "[2]", "result": 20.4, "unit": "%"}]}
{"smiles": "Cc1cc(-c2ccccc2)c(C(=O)C(=O)Nc2ccc3c(c2)C[C@H]2CN(c4ncc(F)cn4)CCN32)n1C", "note": "[Example 33, (S)-2-(1,5-dimethyl-3-phenyl-1H-pyrrol-2-yl)-N-(2-(5-fluoropyrimidin-2-yl)-1,2,3,4,10,10a-hexahydropyrazino[1,2-a]indol-8-yl)-2-oxoacetamide]", "values": [{"measurement": "day 7 survival rate", "setting": "[1]; [3]", "result": 30, "unit": "%"}, {"measurement": "survival rate", "setting": "[1]; immunosuppressed male CD-1 mouse, 10 mg/kg (bid)", "result": 80, "unit": "%"}, {"measurement": "survival time of mouses", "setting": "[1]; [3]", "result": "prolong the survival time"}, {"measurement": "dose dependence of survival", "setting": "[1]; three doses of 1 mg/kg, 3 mg/kg and 10 mg/kg", "result": "dose-dependent relationship"}, {"measurement": "CLint scaled", "setting": "[2]", "result": 25.9, "unit": "mL/min/kg"}, {"measurement": "half-life", "setting": "[2]", "result": 48.2, "unit": "min"}, {"measurement": "Remaining, (T = 60 min)", "setting": "[2]", "result": 43.4, "unit": "%"}]}
